Entries after “also recorded” stand apart in the source; their conditions may differ.
Key:
C57BL6/J mice [1] = experiment: Short-term memory impairment caused by amyloid peptide aggregates (icv Aβ oligomers), Y maze test; assay type: in vivo, mouse; conditions: 4 mg/kg body weight per os once daily for four days; Y maze at day 4 post Aβ
Protocol: (§1) In vivo experiments were carried out according to the National Institute of Health guidelines for the care and use of laboratory animals, approved by the French Ministry for Research and Technology. In the course of experiments, animals were housed at a standard temperature (22±1° C.) and in a light-controlled environment (lights on from 7 a.m. to 8 p.m.) with ad libitum access to food and water. Male C57BL/6 mice (C57BL/6J Rj, ref. SC-CJ-12w-M, Janvier, France) were housed 5 animals per cage. From one week before the start of the experiment until the end of the experiment, mice were housed individually. Animals were monitored twice-a-day by laboratory personnel (8 a.m. and 4 p.m.). In this project, young (14 weeks old) as well as aged (15-16 months old) mice were used. Experiments were carried out using 12 mice per experimental group.
Investigation of short-term working memory—Y maze test Y maze tests were carried out as previously described. Prior to testing, mice were brought to the experimental room for at least 30 min to acclimatize to experimental room conditions. The Y maze is made of opaque Plexiglas and each arm is 40 cm long, 16 cm high, 9 cm wide and positioned at equal angles. The apparatus was placed in the test room in such a way that it was brightened homogeneously with 12-15 lux in the arms as well as in the central zone. One mouse at a time was placed at the end of one arm and was allowed to move in the maze freely during a 5 min examination. Each arm entry was recorded with those entries being counted where the mouse completely placed its hind paws in the chosen arm. […] Results were calculated as the percentage of the ratio of actual detected alternations to possible alternations (defined as the number of total arm entries minus 2).
For the examination of memory impairment caused by Aβ oligomers, a mouse model developed and validated by SynAging was used. […] At day 4 post Aβ treatment, short-term memory was assessed with the Y maze test. […]
At day 4 post Aβ treatment, short-term memory was assessed with the Y maze test.

C57BL6/J mice [2] = experiment: Scopolamine-induced short-term memory impairment, Y maze test; assay type: in vivo, mouse; conditions: per os gavage; scopolamine 0.6 mg/kg i.p. 30 min prior to Y maze test
Protocol: as §1
Investigation of short-term working memory—Y maze test Y maze tests were carried out as previously described. Prior to testing, mice were brought to the experimental room for at least 30 min to acclimatize to experimental room conditions. […] Each arm entry was recorded with those entries being counted where the mouse completely placed its hind paws in the chosen arm. […] Results were calculated as the percentage of the ratio of actual detected alternations to possible alternations (defined as the number of total arm entries minus 2). […]

EPO gene = experiment: Gene expression in primary astrocytes by qRT-PCR; assay type: cell-based, rat; conditions: 3 h, Example 2 at 330 nM and 1000 nM, PBT2 at 1000 nM
Protocol: (§2) Pure astrocyte culture was obtained from neonatal rats according to the protocol found in literature (Protocols for Neural Cell Culture 2001, pp 117-127. ch 9. Ruth Cole, Jean de Vellis. Preparation of Astrocyte, Oligodendrocyte, and Microglia Cultures from Primary Rat Cerebral Cultures). Astrocytes (1 million) were cultured in 100 mm TC-treated culture dishes (Orange Scientific, Belgium) in an incubator set at 37° C. and 5% CO2 with humid air. The R-enantiomeric derivative according to Example 2 was added to cells in two final concentrations: 330 nM and 1000 nM. Cells were also treated with 1000 nM PBT2 which bears the basic structure of the R-enantiomer according to Example 2 (8-hydroxy-quinoline ring) but contains conformational differences and was developed for the treatment of neurodegenerative disorders (Pub. No.: WO/2004/007461). Treatments were carried out with a 100 μM DMSO-based stock solution. Control cells were treated with the same amount of DMSO without the agent. Each treatment was conducted in three separate culture dishes. After treatment, cells were incubated at 37° C. for 3 h, then the medium was removed, cells were washed with PBS and total RNA was extracted from cells with the Accuzol™ Total RNA Extraction Solution (Bioneer, Daejeon, South Korea), according to the manufacturer's protocol. cDNA transcription was carried out with the High Capacity cDNA Reverse Transcription Kit (Life Technologies, Foster City, Calif., USA). During the test, the expression of four genes (PGK1, EPO, HMOX-1, VEGF) controlled by HIF1a was determined by qRT-PCR, with HPRT gene serving as a control. Relative expression of genes in treated samples was compared to untreated controls. The PCR was conducted with a LightCycler® Nano Instrument (Roche, Budapest, Hungary) in the presence of UPL (Universal Probe Library) probes (HPRT: 95, HMOX1: 4, EPO: 16, VEGF: 1, PGK1: 66), specific primers (HPRT1: 5′-gaccggttctgtcatgtcg-3′, HPRT2: 5′-[…]-3′; HMOX1-1: 5′-[…]-3′, HMOX1-2: 5′-ctgcagctcctcaaacagc-3′; EPO1: 5′-[…]-3′, EPO2: 5′-ccttctgcacagcccatt-3′; VEGF1: 5′-[…]-3′, VEGF2: 5′-[…]-3′; PGK1-1: 5′-[…]-3′, PGK1-2: 5′-gacttggctccattgtcca-3′) in 20 μl PCR reaction volume with 20 ng cDNA template and 10 μl Lightcycler DNA Probes Master (5×) Reagent Kit (Roche) according to the following protocol: activation of enzyme at 95° C. for 10 min, 50 cycles: denaturation at 95° C. for 15 sec, hybridization and polymerization, then detection at 60° C. for 30 sec.

HMOX-1 gene = experiment: Gene expression in primary astrocytes by qRT-PCR; assay type: cell-based, rat; conditions: 3 h, Example 2 at 330 nM and 1000 nM, PBT2 at 1000 nM
Protocol: as §2

PGK1 gene = experiment: Gene expression in primary astrocytes by qRT-PCR; assay type: cell-based, rat; conditions: in the cells
Protocol: as §2

VEGF gene = experiment: Gene expression in primary astrocytes by qRT-PCR; assay type: cell-based, rat; conditions: in the cells
Protocol: as §2

[3] = system: BALB/c ear skin graft on C57BL/6 recipient mice; experiment: Mouse skin transplantation, graft rejection scoring; assay type: in vivo; conditions: 5 mg/kg once every day from transplantation; Example 2 orally, tacrolimus intraperitoneal; scoring at day 9 and day 10
Protocol: Mouse skin transplantation is a standard method to assay host T cell responses to MHC-disparate donor antigens, which protocol was followed in the present example (Garrod and Cahalan; 2008). Briefly, WT C57BL/6 recipient mice (8-12 weeks old) and WT BALB/c donor mice (8-12 weeks old) were anesthetized with a combination of 10 mg/kg Xylazine and 100 mg/kg Ketamine administered by i.p. injection and 0.05 mg/kg Buprenorphine was administered by subcutaneous injection for analgesia. Ear skin (1.0 cm2) from the WT BALB/c donor mouse was grafted onto the flank of the WT C57BL/6 recipient. The implanted skin (graft) was covered with a sterile bandage, which was removed on day 7 post-transplant.
Recipients received either no treatment (controls), or treated with compound according to Example 2 orally at 5 mg/kg dose, once every day until the end of the experiment from the day of transplantation. […]
Different scores were used to define the quality of the grafts: intact grafts (Score 0), early stages of rejection (Score 1-4, corresponding to first clear signals of graft rejection: 1; >25% rejection rate: 2; >50% rejection rate: 3; >75% rejection rate: 4) up to complete graft rejection (Score 5). […] Average scores with SEM were calculated for each group.

Cc1ccnc(N[C@@H](c2ccc(C(F)(F)F)cc2)c2ccc3cccnc3c2O)n1 [Example 3, 7-[(S)-[(4-Methylpyrimidin-2-yl)amino][4-(trifluoromethyl)phenyl]methyl]quinolin-8-ol]
inhibition of short-term memory impairment caused by fibrillar aggregates of amyloid peptides (C57BL6/J mice [1]): did not inhibit
inhibition of scopolamine-induced short-term memory impairment (C57BL6/J mice [2]): did not inhibit
activation of EPO gene expression (EPO gene): capable to increase the gene activity; also recorded: highest inductive effect
activation of HMOX-1 gene expression (HMOX-1 gene): capable to increase the gene activity; also recorded: caused the induction of HMOX-1 in astrocytes
increase of PGK-1 gene activity (PGK1 gene): capable to increase the gene activity
increase of VEGF gene activity (VEGF gene): capable to increase the gene activity

CN(C)Cc1ccc2c(Cl)cc(Cl)c(O)c2n1 [PBT2, reference compound]
activation of EPO gene expression (EPO gene): did not induced differences in gene activity
activation of HMOX-1 gene expression (HMOX-1 gene): did not induced differences in gene activity

C=CC[C@@H]1/C=C(\C)C[C@H](C)C[C@H](OC)[C@H]2O[C@@](O)(C(=O)C(=O)N3CCCC[C@H]3C(=O)O[C@H](/C(C)=C/[C@@H]3CC[C@@H](O)[C@H](OC)C3)[C@H](C)[C@@H](O)CC1=O)[C@H](C)C[C@@H]2OC [tacrolimus, reference compound]
skin graft rejection score (0-5) [3]: smaller score values both on day 9 and on day 10
